ChEMBL document CHEMBL3826905, “1'-Homonucleosides and their structural analogues: A review” (Eur J Med Chem, 2016)
pEC50, pIC50, pKi: −log10 of the molar value. ≈ marks a conversion by molar mass, not a printed value.

Experiments:
[1] = tested on: Cytomegalovirus; test: Antiviral activity against Cytomegalovirus AD169 infected in HEL cells; type: functional, organism-based; details: Human betaherpesvirus 5, AD169, HEL
[2] = tested on: Cytomegalovirus; test: Antiviral activity against Cytomegalovirus Davis 07/1 infected in HEL cells; type: functional, organism-based; details: Human betaherpesvirus 5, Davis 07/1, HEL
[3] = tested on: Human alphaherpesvirus 3; test: Antiviral activity against TK-deficient Varicella-zoster virus infected in HEL cells; type: functional, organism-based; details: Human alphaherpesvirus 3, HEL
[4] = tested on: Influenza A virus; test: Antiviral activity against Influenza A virus; type: functional, organism-based
[5] = molecular target: T1, Inosine-adenosine-guanosine-nucleoside hydrolase (Trypanosoma brucei brucei, UniProt O15727); test: Inhibition of Trypanosoma brucei brucei inosine-adenosine-guanosine nucleoside hydrolase expressed in Escherichia coli
T1 sequence (O15727 whole entry): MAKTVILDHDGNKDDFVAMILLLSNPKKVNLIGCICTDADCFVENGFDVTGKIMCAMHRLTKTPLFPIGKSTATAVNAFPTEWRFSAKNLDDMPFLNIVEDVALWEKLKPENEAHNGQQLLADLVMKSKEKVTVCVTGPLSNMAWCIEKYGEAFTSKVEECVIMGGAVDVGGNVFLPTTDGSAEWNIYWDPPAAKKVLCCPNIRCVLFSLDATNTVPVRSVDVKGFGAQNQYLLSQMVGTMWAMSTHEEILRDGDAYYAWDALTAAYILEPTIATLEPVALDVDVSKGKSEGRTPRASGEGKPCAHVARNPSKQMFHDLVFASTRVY

[6] = molecular target: T2, Inosine-uridine preferring nucleoside hydrolase (Crithidia fasciculata, UniProt Q27546); test: Inhibition of Crithidia fasciculata inosine-uridine nucleoside hydrolase expressed in Escherichia coli using p-nitrophenyl beta-D-ribofuranoside as substrate by xanthine oxidase coupled enzyme assay
T2 sequence (Q27546 whole entry): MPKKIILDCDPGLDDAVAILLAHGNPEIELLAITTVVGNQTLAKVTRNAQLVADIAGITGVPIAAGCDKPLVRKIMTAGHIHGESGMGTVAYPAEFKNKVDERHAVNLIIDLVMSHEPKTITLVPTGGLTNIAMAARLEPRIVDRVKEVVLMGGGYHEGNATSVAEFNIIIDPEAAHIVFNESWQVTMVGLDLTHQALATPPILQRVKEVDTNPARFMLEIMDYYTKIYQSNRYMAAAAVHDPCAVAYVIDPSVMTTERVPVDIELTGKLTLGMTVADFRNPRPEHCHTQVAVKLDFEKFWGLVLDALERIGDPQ

[7] = tested on: Hepatitis C virus; test: Antiviral activity against Hepatitis C virus; type: functional, organism-based, Hepacivirus hominis
[8] = tested on: MOLT-4; test: Cytostatic activity against human Molt4/C8 cells; type: functional, cell-based; details: Homo sapiens, MOLT-4
[9] = Cytostatic activity against mouse L1210/0 cells; type: functional, cell-based; details: Mus musculus, L1210/0
[10] = tested on: CCRF-CEM; test: Cytostatic activity against human CEM/0 cells; type: functional, cell-based
[11] = Antiproliferative activity against mouse L1210/0 cells after 48 hrs by trypan blue staining method; type: functional, cell-based; details: L1210/0, 48 h
[12] = Antiproliferative activity against mouse L1210/0 cells; type: functional, cell-based
[13] = Antiproliferative activity against human Molt4/C8 cells; type: functional, cell-based; details: MOLT-4
[14] = Antiproliferative activity against human CEM/0 cells; type: functional, cell-based; details: CCRF-CEM
[15] = Cytotoxicity against human CEM/0 cells assessed as reduction in cell viability; type: cell-based, CCRF-CEM
[16] = Cytotoxicity against HEL cells assessed as reduction in cell viability; type: cell-based; details: human
[17] = Cytotoxicity against human E6SM cells assessed as alteration in cell morphology by microscopic method; type: cell-based
[18] = Cytotoxicity against African green monkey Vero cells assessed as alteration in cell morphology by microscopic method; type: cell-based; details: chlorocebus sabaeus
[19] = Cytotoxicity against human HeLa cells assessed as alteration in cell morphology by microscopic method; type: cell-based
[20] = tested on: Human immunodeficiency virus 1; test: Antiviral activity against HIV1 infected in human CEM cells assessed as protection against virus-induced cytopathicity by giant cell formation assay; type: functional, organism-based; details: Human immunodeficiency virus 1, CCRF-CEM
[21] = tested on: Human immunodeficiency virus 2; test: Antiviral activity against HIV2 infected in human CEM cells assessed as protection against virus-induced cytopathicity by giant cell formation assay; type: functional, organism-based; details: Human immunodeficiency virus 2, CCRF-CEM

With CC(C)(C)[Si](OC[C@H]1C[C@@H](Cn2cnc3c(N)ncnc32)c2cn(Cc3ccccc3)nc21)(c1ccccc1)c1ccccc1 as the compound, how does the pEC50 [1] read?
The pEC50 was 6.30.

And the pEC50 [2]?
Its pEC50 is 6.30.

What about the pEC50 [3] of the same compound?
The pEC50 was 5.82.

With O=c1[nH]cnc2c1ncn2C[C@H]1C[C@H](OCc2ccccc2)[C@@H](COCc2ccccc2)O1 as the compound, how does the IC50 [4] read?
The IC50 was 24.3 µg/mL (≈ 54.4 µM).

With OC[C@H]1N[C@@H](Cn2cnc3c(O)ncnc32)[C@H](O)[C@@H]1O as the compound, how does the pKi [5] read?
The pKi was 5.44.

What about the pKi [6] of the same compound?
The pKi was 5.27.

With OCC12CCC(Cn3cnc4c(Cl)ncnc43)(O1)c1ccccc12 (stereo not given) as the compound, how does the pEC50 [7] read?
Its pEC50 is 4.35.

With CC(C)Nc1ncnc2c1ncn2C[C@@H]1C[C@H](CO)c2ccccc21 as the compound, how does the IC50 [8] read?
The IC50 was 24 µg/mL (≈ 71.1 µM).

And the IC50 [9]?
Its IC50 is 24 µg/mL (≈ 71.1 µM).

And the IC50 [10]?
The IC50 was 24 µg/mL (≈ 71.1 µM).

What does the source list for CC(C)(C)[Si](OC[C@H]1C[C@@H](Cn2cnc3c(Cl)nc(N)nc32)c2cn(Cc3ccccc3)nc21)(c1ccccc1)c1ccccc1?
pEC50 [1]: 6.36; pEC50 [2]: 6.41; pEC50 [3]: 5.68

Which results are given for Cn1ncc2c1[C@H](Cn1cnc3c(Cl)ncnc31)C[C@@H]2CO[Si](c1ccccc1)(c1ccccc1)C(C)(C)C?
IC50 [8]: 3.2 µg/mL (≈ 5.74 µM); IC50 [9]: 3.2 µg/mL (≈ 5.74 µM); IC50 [10]: 3.2 µg/mL (≈ 5.74 µM)

With Cc1cn(C[C@H]2C[C@H](O)[C@@H](CO)O2)c(=O)[nH]c1=O as the compound, how does the IC50 [4] read?
The IC50 was 70.4 µg/mL (≈ 275 µM).

With O=c1ccn(C[C@H]2C[C@H](OCc3ccccc3)[C@@H](COCc3ccccc3)O2)c(=O)[nH]1 as the compound, how does the IC50 [4] read?
Its IC50 is 108 µg/mL (≈ 256 µM).

With Nc1nc(O)c2ncn(C[C@@H]3N[C@H](CO)[C@@H](O)[C@H]3O)c2n1 as the compound, how does the pKi [5] read?
Its pKi is 5.44.

What about the pKi [6] of the same compound?
Its pKi is 5.27.

For Nc1ccn(C[C@H]2C[C@H](O)[C@@H](CO)O2)c(=O)n1, which IC50 [4] is on record?
Its IC50 is 67.3 µg/mL (≈ 279 µM).

With Nc1nc(Cl)c2ncn(C[C@@H]3C[C@H](CO)c4c(-c5ccccc5)nnc(-c5ccccc5)c43)c2n1 as the compound, how does the pIC50 [11] read?
Its pIC50 is less than 3.70.

With Nc1ncnc2c1ncn2C[C@H]1CCC[C@H]1CO as the compound, how does the IC50 [12] read?
Its IC50 is 100 µg/mL (≈ 404 µM).

And the IC50 [13]?
Its IC50 is 100 µg/mL (≈ 404 µM).

What about the IC50 [14] of the same compound?
Its IC50 is 100 µg/mL (≈ 404 µM).

For OC[C@H]1C[C@@H](Cn2cnc3c(Cl)ncnc32)c2ccccc21, which IC50 [8] is on record?
Its IC50 is 24 µg/mL (≈ 76.2 µM).

And the IC50 [9]?
Its IC50 is 24 µg/mL (≈ 76.2 µM).

What about the IC50 [10] of the same compound?
The IC50 was 24 µg/mL (≈ 76.2 µM).

Which results are given for Nc1nc(Cl)c2ncn(C[C@H]3CC[C@@H](CO)C3)c2n1?
CC50 [15]: 1 µg/mL (≈ 3.55 µM); CC50 [16]: 1 µg/mL (≈ 3.55 µM); CC50 [17]: 1 µg/mL (≈ 3.55 µM); CC50 [18]: 1 µg/mL (≈ 3.55 µM); CC50 [19]: 1 µg/mL (≈ 3.55 µM)

With Nc1nc(NC2CCCC2)c2ncn(C[C@@H]3C[C@H](CO)c4c(-c5ccccc5)nnc(-c5ccccc5)c43)c2n1 as the compound, how does the pIC50 [11] read?
Its pIC50 is 4.18.

With Clc1ncnc2c1ncn2CC12C=CC(O1)c1ccccc12 (stereo not given) as the compound, how does the pEC50 [7] read?
The pEC50 was 5.20.

What does the source list for Cn1ncc2c1[C@H](Cn1cnc3c(Cl)nc(N)nc31)C[C@@H]2CO?
IC50 [8]: 3.2 µg/mL (≈ 9.59 µM); IC50 [9]: 3.2 µg/mL (≈ 9.59 µM); IC50 [10]: 3.2 µg/mL (≈ 9.59 µM)

Which results are given for O=c1[nH]c(=O)n([C@H]2CC[C@@H](CO)C2)cc1I?
IC50 [12]: 73 µg/mL (≈ 217 µM); IC50 [13]: 73 µg/mL (≈ 217 µM)

For O=c1[nH]c(=O)n([C@H]2CCC[C@H]2CO)cc1I, which EC50 [20] is on record?
Its EC50 is 12.5 µg/mL (≈ 37.2 µM).

And the EC50 [21]?
The EC50 was 12.5 µg/mL (≈ 37.2 µM).

With Nc1ccn(C[C@H]2C[C@H](OCc3ccccc3)[C@@H](COCc3ccccc3)O2)c(=O)n1 as the compound, how does the IC50 [4] read?
The IC50 was 57.4 µg/mL (≈ 136 µM).

With OCC12CCC(O1)c1cc3ccccc3cc12 (stereo not given) as the compound, how does the pEC50 [7] read?
The pEC50 was 5.20.

With O=C(OCC12C=CC(O1)c1cc3ccccc3cc12)c1ccccc1 (stereo not given) as the compound, how does the pEC50 [7] read?
The pEC50 was 5.20.

With Cn1ncc2c1[C@H](Cn1ccc(=O)[nH]c1=O)C[C@@H]2CO[Si](c1ccccc1)(c1ccccc1)C(C)(C)C as the compound, how does the IC50 [8] read?
Its IC50 is 3.2 µg/mL (≈ 6.22 µM).

And the IC50 [9]?
The IC50 was 3.2 µg/mL (≈ 6.22 µM).

And the IC50 [10]?
The IC50 was 3.2 µg/mL (≈ 6.22 µM).

Which results are given for Cc1cn(C[C@@H]2C[C@H](CO)c3ccccc32)c(=O)[nH]c1=O?
IC50 [8]: 81 µg/mL (≈ 283 µM); IC50 [9]: 81 µg/mL (≈ 283 µM); IC50 [10]: 81 µg/mL (≈ 283 µM)

Which results are given for OC[C@H]1C[C@@H](Cn2cnc3c(-c4ccc(Cl)cc4)ncnc32)c2ccccc21?
IC50 [8]: 0.63 µg/mL (≈ 1.61 µM); IC50 [9]: 0.63 µg/mL (≈ 1.61 µM); IC50 [10]: 0.63 µg/mL (≈ 1.61 µM)

For OC[C@H]1C[C@@H](Cn2cnc3c(NC4CC4)ncnc32)c2ccccc21, which IC50 [8] is on record?
Its IC50 is 24 µg/mL (≈ 71.6 µM).

What about the IC50 [9] of the same compound?
Its IC50 is 24 µg/mL (≈ 71.6 µM).

And the IC50 [10]?
The IC50 was 24 µg/mL (≈ 71.6 µM).

For OCC1CCCC1n1cnc2c(Cl)ncnc21 (stereo not given), which IC50 [12] is on record?
Its IC50 is 19 µg/mL (≈ 75.2 µM).

What about the IC50 [13] of the same compound?
The IC50 was 19 µg/mL (≈ 75.2 µM).

What about the IC50 [14] of the same compound?
Its IC50 is 19 µg/mL (≈ 75.2 µM).

With O=c1[nH]c(=O)n(C2CCCC2CO)cc1I (stereo not given) as the compound, how does the IC50 [12] read?
Its IC50 is 65.8 µg/mL (≈ 196 µM).

What about the IC50 [13] of the same compound?
The IC50 was 65.8 µg/mL (≈ 196 µM).

What about the IC50 [14] of the same compound?
Its IC50 is 65.8 µg/mL (≈ 196 µM).

With Nc1nc2c(ncn2COC(CO)CO)c(=O)[nH]1 [GANCICLOVIR] as the compound, how does the pEC50 [1] read?
The pEC50 was 6.60.

What about the pEC50 [2] of the same compound?
Its pEC50 is 6.40.
